Results reported in patent US8999990B2, “Inhibitors of the renal outer medullary potassium channel” (Merck Sharp & Dohme Corp., priority 2011, dated 2015).

Target: T1, hROMK1 (Kir1.1) (Homo sapiens, UniProt P48048)
T1 construct: expressed in transfected cells
T1 sequence (P48048 1-391): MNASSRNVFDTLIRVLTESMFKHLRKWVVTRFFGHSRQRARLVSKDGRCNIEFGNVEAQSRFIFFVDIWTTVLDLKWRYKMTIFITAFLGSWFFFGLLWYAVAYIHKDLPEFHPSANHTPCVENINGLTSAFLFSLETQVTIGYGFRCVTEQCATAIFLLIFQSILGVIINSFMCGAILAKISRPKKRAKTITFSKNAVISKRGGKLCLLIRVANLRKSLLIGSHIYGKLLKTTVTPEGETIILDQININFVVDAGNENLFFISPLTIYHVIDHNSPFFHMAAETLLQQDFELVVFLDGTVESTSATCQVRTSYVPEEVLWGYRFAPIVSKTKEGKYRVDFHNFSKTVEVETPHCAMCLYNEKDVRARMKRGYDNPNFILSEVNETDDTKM
Assay: 86Rb+ Efflux Assay
Assay type: cell-based
Conditions: CHO-DHFR- cells stably expressing hROMK1; 35 min incubation
Procedure: Several assays may be used to measure functional inhibition of the ROMK channel by compounds of the instant invention. One assay that was used to test the activity of compounds in the Examples is the functional ^86Rb^+ efflux assay described below, that measures the ability of ROMK to permeate ^86Rb^+, in the absence or presence of test compound. Under control conditions, cells loaded with ^86Rb^+ and incubated in Rb^+-free medium display a time-dependent efflux of the isotope, the rate of which depends on number of functional channels. When cells are incubated in the presence of a channel inhibitor, efflux of ^86Rb^+ is prevented in a concentration-dependent manner, and IC50 values of inhibition by compounds can be accurately determined. This assay has been established with cell lines expressing either human, rat or dog ROMK channels, and can operate in 96- or 384-well format. Importantly, the human, rat, and dog ^86Rb^+ efflux assays can be carried out in the presence of up to 100% serum allowing, therefore, an accurate estimation of the effect of protein binding on the inhibitory activity of compounds of interest. Another ROMK functional assay used to test the activity of compounds in the Examples (described below) makes use of the ability of thallium to permeate through open ROMK channels and increase the fluorescence of a dye previously loaded into the cells. Under control conditions, cells loaded with dye and exposed to thallium-containing medium display a time-dependent increase in fluorescence, the rate of which depends on number of functional channels. When cells are incubated in the presence of a channel inhibitor, the increase in fluorescence is attenuated in a concentration-dependent manner, and IC50 values of inhibition by compounds can be accurately determined. This assay has been established with cell lines expressing either human, or rat ROMK channels, and operates in 384-well format.
CHO-DHFR-cells stably expressing hROMK1 (Kir1.1) are grown at 37° C. in a 10% CO2 humidified incubator in Iscove's Modified Dulbecco's Medium (Gibco 12440) supplemented with HT Supplement, Penicillin/Streptomycin/Glutamine, G418 (500 μg/ml) and 10% FBS. Cells are seeded in Sterile and Tissue Culture Treated Packard CulturPlate White Opaque Microplates at a concentration of 5.0E5-7.0E5 cells/ml-PerkinElmer 6005680 (96-well); Corning 3707 (384 well) in complete media containing 1.5 μCi/ml Rubidium-86. Cells are incubated in 37° C.-10% CO2 incubator overnight. On the day of the experiment, the media is removed and cells are washed with low K assay buffer. ^86Rb^+ efflux is initiated after addition of assay buffer±test compound followed by 35 min incubation at room temperature. ROMK-sensitive component of efflux is defined in the presence of 10 mM BaCl2. Assay buffer is removed and transferred to a plate and cells are solubilized in the presence of SDS. Radioactivity associated with assay and cell plate is determined.
• 1. Remove cell media and wash cells with low K assay buffer (126.9 mM NaCl, 4.6 mM KCl, 2 mM CaCl2, 1 mM MgCl2, 10 mM Hepes/NaOH; pH 7.4) • 200 μl for 96-well plate; 70 μl for 384-well plate • 2. Add assay buffer (121.5 mM NaCl, 10 mM KCl, 2 mM CaCl2, 1 mM MgCl2, 10 mM Hepes/NaOH; pH 7.4)±test compound to cells • 100 μl for 96-well plate; 50 μl for 384-well plate • 3. Incubate at ambient temperature (22-24° C.) for 35 min • 4. Remove assay buffer add it to a 96- or 384-well plate containing Microscint-20 • 96-well Plate: 100 μl buffer, 170 μl MicroScint 20 (for TopCount) • 384-well plate: 20 μl buffer, 50 μl Optiphiase (for MicroLux) • 5. Completely remove remaining assay buffer from cell plate • 6. Solubilize cells with 1% SDS; than add MicroScint or Optiphase • 96-well Plate: 30 μl SDS, 170 μl MicroScint 20 (for TopCount) • 384-well plate: 20 μl SDS, 50 μl Optiphiase (for MicroLux) • 7. Seal both cell and supernatant plates and count Data Calculation— […]

Row | SMILES | IC50 [nM]
1 | O=C1OCc2cc(CCN3CCN(CCc4ccc5c(c4)COC5=O)C(=O)C3)ccc21 [Example 29, 1,4-Bis[2-(1-oxo-1,3-dihydro-2-benzofuran-5-yl)ethyl]piperazin-2-one] | 420
2 | COC(=O)c1cc([N+](=O)[O-])ccc1CCN1CCN(CCc2ccc([N+](=O)[O-])cc2)C(=O)C1 [Example 7, Methyl 5-nitro-2-(2-{4-[2-(4-nitrophenyl)ethyl]-3-oxopiperazin-1-yl}ethyl)benzoate] | 390
3 | COc1cc(CCN2CCN(CCc3ccc([N+](=O)[O-])cc3)C(=O)C2)ccc1[N+](=O)[O-] [Example 22, 4-[2-(3-Methoxy-4-nitrophenyl)ethyl]-1-[2-(4-nitrophenyl)ethyl]piperazin-2-one] | 170
4 | N#Cc1cccc2c1CCCC2CN1CCN(CCc2ccc3c(c2)COC3=O)CC1=O (racemic) [Example 33, 5-((2-oxo-4-(2-(1-oxo-1,3-dihydroisobenzofuran-5-yl)ethyl)piperazin-1-yl)methyl)-5,6,7,8-tetrahydronaphthalene-1-carbonitrile] | 150
5 | COc1ccc(CCN2CCN(CCc3ccc4c(c3)COC4=O)C(=O)C2)cc1C#N [Example 32, 2-Methoxy-5-(2-{3-oxo-4-[2-(1-oxo-1,3-dihydro-2-benzofuran-5-yl)ethyl]piperazin-1-yl}ethyl)benzonitrile] | 460
6 | N#Cc1ccc2c(c1)CCC(N1CCN(C(=O)C3CCc4cc(-n5cnnn5)ccc43)CC1=O)C2 (stereo not shown) [Example 57, 6-(2-Oxo-4-{[5-(1H-tetrazol-1-yl)-2,3-dihydro-1H-inden-1-yl]carbonyl}piperazin-1-yl)-5,6,7,8-tetrahydronaphthalene-2-carbonitrile] | 800
7 | O=C1OCc2cc(CCN3CCN(CCc4ccc5nonc5c4)C(=O)C3)ccc21 [Example 27, 1-[2-(2,1,3-Benzoxadiazol-5-yl)ethyl]-4-[2-(1-oxo-1,3-dihydro-2-benzofuran-5-yl)ethyl]piperazin-2-one] | 870
8 | O=C1CN(CCc2ccc([N+](=O)[O-])c(F)c2)CCN1CCc1ccc([N+](=O)[O-])cc1 [Example 18, 4-[2-(3-Fluoro-4-nitrophenyl)ethyl]-1-[2-(4-nitrophenyl)ethyl]piperazin-2-one] | 40
9 | N#Cc1ccc2c(c1)CCCC2CN1CCN(CCc2ccc3c(c2)COC3=O)CC1=O (racemic) [Example 38, 5-({2-Oxo-4-[2-(1-oxo-1,3-dihydro-2-benzofuran-5-yl)ethyl]piperazin-1-yl}methyl)-5,6,7,8-tetrahydronaphthalene-2-carbonitrile] | 140
10 | COC(=O)c1cc(CCN2CCN(CCc3ccc([N+](=O)[O-])cc3)C(=O)C2)ccc1[N+](=O)[O-] [Example 8, Methyl 2-nitro-5-(2-{4-[2-(4-nitrophenyl)ethyl]-3-oxopiperazin-1-yl}ethyl)benzoate] | 250
11 | CC1C(=O)N(CCc2ccc([N+](=O)[O-])cc2)CCN1CCc1ccc([N+](=O)[O-])cc1 (racemic) [Example 6, 3-Methyl-1,4-bis[2-(4-nitrophenyl)ethyl]piperazin-2-one] | 270
12 | N#Cc1ccc(CCN2CCN(CCc3ccc4c(c3)COC4=O)CC2=O)cc1Cl [Example 36, 2-Chloro-4-(2-{2-oxo-4-[2-(1-oxo-1,3-dihydro-2-benzofuran-5-yl)ethyl]piperazin-1-yl}ethyl)benzonitrile] | 110
13 | N#Cc1ccc(CCN2CCN(CCc3ccc4c(c3)COC4=O)CC2=O)cc1Br [Example 35] | 170

Next, values leading:

Row | IC50 [nM] | SMILES
14 | 80 | COc1cc([N+](=O)[O-])ccc1CCN1CCN(C2CCc3cc(C#N)ccc3C2)C(=O)C1 (racemic) [Example 9, 6-{4-[2-(2-Methoxy-4-nitrophenyl)ethyl]-2-oxopiperazin-1-yl}-5,6,7,8-tetrahydronaphthalene-2-carbonitrile]
15 | 410 | N#Cc1ccc2c(c1)CCC(N1CCN(CCc3ccc4c(c3Cl)COC4=O)CC1=O)C2 (racemic) [Example 31, 6-{4-[2-(4-Chloro-1-oxo-1,3-dihydro-2-benzofuran-5-yl)ethyl]-2-oxopiperazin-1-yl}-5,6,7,8-tetrahydronaphthalene-2-carbonitrile]
16 | 120 | N#Cc1ccc2c(c1)CCC(N1CCN(CCc3ccc([N+](=O)[O-])c(F)c3)CC1=O)C2 (racemic) [Example 21, 6-{4-[2-(3-Fluoro-4-nitrophenyl)ethyl]-2-oxopiperazin-1-yl}-5,6,7,8-tetrahydronaphthalene-2-carbonitrile]
17 | 70 | N#Cc1ccc2c(c1)CCC(N1CCN([C@@H]3CCc4cc(C#N)ccc4C3)C(=O)C1)C2 (stereo partly drawn) [Example 17, (6R)-6,6′-(2-oxopiperazine-1,4-diyl)-di-(5,6,7,8-tetrahydronaphthalene-2-carbonitrile)]
18 | 240 | N#Cc1ccc(CCN2CCN(C3CCc4cc(C#N)ccc4C3)C(=O)C2)cc1 (racemic) [Example 25, 6-{4-[2-(4-Cyanophenyl)ethyl]-2-oxopiperazin-1-yl}-5,6,7,8-tetrahydronaphthalene-2-carbonitrile]
19 | 40 | N#Cc1ccc2c(c1)CCC(N1CCN(CCc3ccc([N+](=O)[O-])cc3)C(=O)C1)C2 (racemic) [Example 2, 6-(4-(4-nitrophenethyl)-3-oxopiperazin-1-yl)-5,6,7,8-tetrahydronaphthalene-2-carbonitrile]
20 | 210 | N#Cc1ccc2c(c1)CCC(N1CCN(CCc3ccc4c(=O)occc4c3)CC1=O)C2 (racemic) [Example 43, 6-{2-Oxo-4-[2-(1-oxo-1H-isochromen-6-yl)ethyl]piperazin-1-yl}-5,6,7,8-tetrahydronaphthalene-2-carbonitrile]
21 | 370 | COc1cc([N+](=O)[O-])ccc1CCN1CCN(CCc2ccc3nonc3c2)C(=O)C1 [Example 10, 1-[2-(2,1,3-Benzoxadiazol-5-yl)ethyl]-4-[2-(2-methoxy-4-nitrophenyl)ethyl]piperazin-2-one]
22 | 410 | N#Cc1ccc2c(c1)CCC(N1CCN(CCc3ccc4c(c3)COC4=O)C(=O)C1)C2 (racemic) [Example 28, 6-{3-Oxo-4-[2-(1-oxo-1,3-dihydro-2-benzofuran-5-yl)ethyl]piperazin-1-yl}-5,6,7,8-tetrahydronaphthalene-2-carbonitrile]
